From ChEMBL document CHEMBL4130453, “Discovery of an Isothiazole-Based Phenylpropanoic Acid GPR120 Agonist as a Development Candidate for Type 2 Diabetes” (ACS Med Chem Lett, 2017)
Values after ≈ are worked out from the molar mass of the structure shown.

Legend:
[1] = biological target: Free fatty acid receptor 4 (Homo sapiens, UniProt Q5NUL3); experiment: Agonist activity at human GPR120 short splice variant expressed in HEK293 cells assessed as increase in intracellular calcium flux incubated for 30 mins measured for 300 secs at 1 sec interval by Fluo-4 NW dye based FLIPR assay; format: functional, cell-based
Sequence of Free fatty acid receptor 4 (Homo sapiens, UniProt Q5NUL3) (Q5NUL3 whole entry, looked up, stated change not applied, canonical isoform): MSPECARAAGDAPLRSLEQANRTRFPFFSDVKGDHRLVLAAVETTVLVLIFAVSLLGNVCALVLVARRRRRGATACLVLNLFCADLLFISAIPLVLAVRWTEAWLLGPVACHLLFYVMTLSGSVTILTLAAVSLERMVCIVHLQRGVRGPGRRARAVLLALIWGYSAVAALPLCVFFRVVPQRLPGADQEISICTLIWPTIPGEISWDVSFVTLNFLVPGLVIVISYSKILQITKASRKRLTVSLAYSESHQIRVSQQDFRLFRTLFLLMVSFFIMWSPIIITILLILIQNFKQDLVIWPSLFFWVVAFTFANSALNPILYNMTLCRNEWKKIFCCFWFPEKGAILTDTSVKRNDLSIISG

[2] = Metabolic stability in human liver microsomes assessed as parent compound remaining measured at 10 mins; format: ADME, microsome; conditions: read-out: Stability
[3] = Metabolic stability in mouse liver microsomes assessed as parent compound remaining measured at 10 mins; format: ADME, microsome; conditions: liver microsomes, read-out: Stability
[4] = Metabolic stability in rat liver microsomes assessed as parent compound remaining measured at 10 mins; format: ADME, microsome; conditions: liver microsomes, read-out: Stability
[5] = biological target: T1, Free fatty acid receptor 4 (Mus musculus, UniProt Q7TMA4); experiment: Agonist activity at mouse GPR120 by calcium flux assay; format: functional
T1 sequence (Q7TMA4 whole entry): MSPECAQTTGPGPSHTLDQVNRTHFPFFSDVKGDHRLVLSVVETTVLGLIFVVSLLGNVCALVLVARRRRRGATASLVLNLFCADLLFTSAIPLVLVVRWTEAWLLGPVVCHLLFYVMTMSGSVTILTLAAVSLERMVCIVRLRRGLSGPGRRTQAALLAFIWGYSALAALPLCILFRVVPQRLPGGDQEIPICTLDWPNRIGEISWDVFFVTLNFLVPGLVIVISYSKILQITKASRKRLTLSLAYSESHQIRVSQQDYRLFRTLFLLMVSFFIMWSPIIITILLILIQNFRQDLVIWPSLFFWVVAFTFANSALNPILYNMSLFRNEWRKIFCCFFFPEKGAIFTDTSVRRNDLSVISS

[6] = biological target: Free fatty acid receptor 1 (Homo sapiens, UniProt O14842); experiment: Agonist activity at human GPR40 by calcium flux assay; format: functional
Sequence of Free fatty acid receptor 1 (O14842 whole entry): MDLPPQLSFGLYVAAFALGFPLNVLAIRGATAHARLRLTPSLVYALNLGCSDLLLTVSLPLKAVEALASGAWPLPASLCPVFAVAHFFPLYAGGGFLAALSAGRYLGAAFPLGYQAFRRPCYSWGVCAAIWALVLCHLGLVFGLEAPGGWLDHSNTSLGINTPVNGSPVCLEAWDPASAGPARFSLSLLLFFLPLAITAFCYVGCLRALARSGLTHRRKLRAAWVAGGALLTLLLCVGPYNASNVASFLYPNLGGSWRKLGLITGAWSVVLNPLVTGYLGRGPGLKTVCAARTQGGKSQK

Mus musculus [7] = experiment: Antidiabetic activity in diet-induced obese C57BL/6 mouse assessed as reduction in plasma glucose delta AUC level at 1 mg/kg, po administered 30 mins prior to glucose challenge measured 90 mins post glucose challenge by OGTT relative to control; format: functional; parameters: scale not given: the % may be the effect or the level left
Mus musculus [8] = experiment: Antidiabetic activity in diet-induced obese C57BL/6 mouse assessed as reduction in plasma glucose delta AUC level at 3 mg/kg, po administered 30 mins prior to glucose challenge measured 90 mins post glucose challenge by OGTT relative to control; format: functional; parameters: scale not given: the % may be the effect or the level left
Mus musculus [9] = experiment: Antidiabetic activity in diet-induced obese C57BL/6 mouse assessed as reduction in plasma glucose delta AUC level administered orally 30 mins prior to glucose challenge measured 90 mins post glucose challenge by OGTT; format: functional, organism-based
Mus musculus [10] = experiment: Antidiabetic activity in diet-induced obese C57BL/6 mouse harboring wild type GPR120 assessed as reduction in plasma glucose delta AUC level at 60 mg/kg, po qd administered 30 mins prior to glucose challenge measured 90 mins post glucose challenge for 3 weeks; format: functional; parameters: scale not given: the % may be the effect or the level left
Mus musculus [11] = experiment: Antidiabetic activity in diet-induced obese C57BL/6 mouse assessed as reduction in plasma glucose delta AUC level at 0.3 mg/kg, po administered 30 mins prior to glucose challenge measured 90 mins post glucose challenge by OGTT relative to control; format: functional; parameters: scale not given: the % may be the effect or the level left
Mus musculus [12] = experiment: Antidiabetic activity in diet-induced obese C57BL/6 mouse assessed as reduction in plasma glucose delta AUC level at 0.1 mg/kg, po administered 30 mins prior to glucose challenge measured 90 mins post glucose challenge by OGTT relative to control; format: functional; parameters: scale not given: the % may be the effect or the level left
Mus musculus [13] = experiment: Antidiabetic activity in GPR120 knockout diet-induced obese C57BL/6 mouse assessed as reduction in plasma glucose delta AUC level at 60 mg/kg, po qd administered 30 mins prior to glucose challenge measured 90 mins post glucose challenge for 3 weeks; format: functional; parameters: scale not given: the % may be the effect or the level left
[14] = Inhibition of CYP450 (unknown origin) measured up to 10 uM; format: ADME; conditions: human
[15] = biological target: T2, PXR (nuclear receptor subfamily 1 group I member 2) (Homo sapiens, UniProt O75469); experiment: Activation of PXR (unknown origin) at 5 uM relative to control; conditions: read-out: Activity
T2 sequence (O75469 whole entry): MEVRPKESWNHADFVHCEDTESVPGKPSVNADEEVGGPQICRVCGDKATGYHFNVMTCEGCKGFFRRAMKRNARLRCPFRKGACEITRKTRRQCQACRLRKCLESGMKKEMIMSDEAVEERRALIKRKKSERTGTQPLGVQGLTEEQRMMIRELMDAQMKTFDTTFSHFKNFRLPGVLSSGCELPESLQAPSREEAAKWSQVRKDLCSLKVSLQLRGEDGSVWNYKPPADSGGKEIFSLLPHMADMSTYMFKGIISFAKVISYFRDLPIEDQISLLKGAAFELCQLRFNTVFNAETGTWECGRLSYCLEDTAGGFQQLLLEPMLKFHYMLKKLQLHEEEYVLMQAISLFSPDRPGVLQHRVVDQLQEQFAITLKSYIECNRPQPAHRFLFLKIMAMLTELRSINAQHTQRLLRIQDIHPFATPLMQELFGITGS

[16] = biological target: Voltage-gated inwardly rectifying potassium channel KCNH2 (Homo sapiens, UniProt Q12809); experiment: Inhibition of human ERG
Sequence of Voltage-gated inwardly rectifying potassium channel KCNH2 (Q12809 whole entry): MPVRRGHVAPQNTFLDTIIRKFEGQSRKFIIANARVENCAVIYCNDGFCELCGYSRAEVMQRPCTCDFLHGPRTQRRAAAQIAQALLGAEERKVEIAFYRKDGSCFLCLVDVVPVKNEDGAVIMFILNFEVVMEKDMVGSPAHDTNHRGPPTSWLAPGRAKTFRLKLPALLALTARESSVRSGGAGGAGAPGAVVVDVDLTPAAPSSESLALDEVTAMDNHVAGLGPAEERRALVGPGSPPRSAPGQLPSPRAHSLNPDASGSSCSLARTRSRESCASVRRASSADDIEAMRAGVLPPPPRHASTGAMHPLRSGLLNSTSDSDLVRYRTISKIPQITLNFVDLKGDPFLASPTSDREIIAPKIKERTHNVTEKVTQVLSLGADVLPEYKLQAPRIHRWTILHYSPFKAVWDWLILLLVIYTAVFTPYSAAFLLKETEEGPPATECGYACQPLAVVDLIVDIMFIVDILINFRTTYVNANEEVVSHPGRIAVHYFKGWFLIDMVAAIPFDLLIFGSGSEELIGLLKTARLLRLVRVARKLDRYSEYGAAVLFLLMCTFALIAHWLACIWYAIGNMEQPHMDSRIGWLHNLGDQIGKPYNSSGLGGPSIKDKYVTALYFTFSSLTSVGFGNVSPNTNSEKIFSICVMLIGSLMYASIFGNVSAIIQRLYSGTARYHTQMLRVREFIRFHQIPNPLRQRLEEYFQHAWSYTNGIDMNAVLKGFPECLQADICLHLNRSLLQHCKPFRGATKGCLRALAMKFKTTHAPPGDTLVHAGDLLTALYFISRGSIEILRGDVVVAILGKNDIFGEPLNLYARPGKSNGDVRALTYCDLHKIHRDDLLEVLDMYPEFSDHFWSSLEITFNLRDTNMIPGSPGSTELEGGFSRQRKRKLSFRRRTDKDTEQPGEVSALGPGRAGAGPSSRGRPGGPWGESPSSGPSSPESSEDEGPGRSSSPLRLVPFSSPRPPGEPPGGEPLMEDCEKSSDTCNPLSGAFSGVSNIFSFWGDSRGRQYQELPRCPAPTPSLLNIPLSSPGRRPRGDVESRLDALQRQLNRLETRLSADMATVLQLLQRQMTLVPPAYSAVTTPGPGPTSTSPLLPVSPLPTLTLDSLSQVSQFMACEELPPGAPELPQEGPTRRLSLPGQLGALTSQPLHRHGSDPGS

hERG (KCNH2) [17] = biological target: T3, hERG (KCNH2) (Homo sapiens, UniProt Q12809); experiment: Inhibition of human ERG at 3 uM by patch express assay relative to control
T3 sequence (Q12809 whole entry): as above

hERG (KCNH2) [18] = biological target: T3, hERG (KCNH2); experiment: Inhibition of human ERG at 10 uM by patch express assay relative to control
hERG (KCNH2) [19] = biological target: T3, hERG (KCNH2); experiment: Inhibition of human ERG at 30 uM by patch express assay relative to control
[20] = Protein binding in human plasma; format: ADME, cell-free; conditions: read-out: PPB (converted)
[21] = Protein binding in rat plasma; format: ADME, cell-free; conditions: read-out: PPB (converted)
[22] = Protein binding in mouse plasma; format: ADME, cell-free; conditions: read-out: PPB (converted)
[23] = Kinetic solubility of the compound in PBS; format: physicochemical; conditions: read-out: Kinetic_solubility
[24] = Apparent permeability from apical to basolateral side in MDCK cells; format: ADME, cell-based, Canis lupus familiaris; conditions: dog
[25] = Efflux ratio of apparent permeability from basolateral to apical side over apical to basolateral side in MDCK cells; format: ADME, cell-based, Canis lupus familiaris; conditions: dog
[26] = Oral bioavailability in SPF Sprague-Dawley rat at 10 mg/kg by LC-MS/MS analysis; format: ADME, organism-based; conditions: in vivo
[27] = Half life in SPF Sprague-Dawley rat at 10 mg/kg, po by LC-MS/MS analysis; format: ADME, organism-based; conditions: in vivo
[28] = Cmax in SPF Sprague-Dawley rat at 10 mg/kg, po by LC-MS/MS analysis; format: ADME, organism-based; parameters: dose 10 mg/kg, route oral; conditions: in vivo
[29] = AUClast in SPF Sprague-Dawley rat at 10 mg/kg, po by LC-MS/MS analysis; format: ADME, organism-based; parameters: dose 10 mg/kg, time 0 - last, route oral; conditions: in vivo
[30] = Cmax in DIO C57bl/6J mouse at 20 mg/kg, po administered via gavage by LC-MS/MS analysis; format: ADME, organism-based; parameters: dose 20 mg/kg, route oral; conditions: in vivo
[31] = AUClast in DIO C57bl/6J mouse at 20 mg/kg, po administered via gavage by LC-MS/MS analysis; format: ADME, organism-based; parameters: dose 20 mg/kg, route oral, time 0 - last; conditions: in vivo
[32] = Half life in DIO C57bl/6J mouse at 20 mg/kg, po administered via gavage by LC-MS/MS analysis; format: ADME, organism-based; conditions: in vivo
[33] = Ratio of drug uptake in DIO C57bl/6J mouse adipose tissue to plasma at 20 mg/kg, po administered via gavage; format: ADME, organism-based; conditions: adipose tissue and plasma

For `O=C(O)CCc1cc(F)c(OCc2c(-c3ccc(Cl)cc3F)nsc2C(F)(F)F)c(F)c1`, the EC50 [1] was 42 nM, the remaining at 10 min [2] was 87 to 100% and the remaining at 10 min [3] was 87 to 100%. For the same molecule, the remaining at 10 min [4] was 87 to 100%, the EC50 [5] was 77 nM and the EC50 [6] was > 5 µM. For the same molecule, the Activity (Mus musculus [7]) was 61%, the Activity (Mus musculus [8]) was 83% and the Activity (Mus musculus [9]) was “Dose-dependent effect”. It also gave an Activity (Mus musculus [10]) of 137%, an Activity (Mus musculus [11]) of 34% and an Activity (Mus musculus [12]) of 3%. The Activity (Mus musculus [13]) was 2%, the “inhibition (INH)” value [14] was “Not Active” and the activity at 5 µM [15] was 25.4%. For the same molecule, the IC50 [16] was > 50 µM, the inhibition at 3 µM (hERG (KCNH2) [17]) was 5.9% and the inhibition at 10 µM (hERG (KCNH2) [18]) was 11.2%. It also gave an inhibition at 30 µM (hERG (KCNH2) [19]) of 12.5%, a fraction unbound [20] of 0.0013 and a fraction unbound [21] of 0.0019. For the same molecule, the fraction unbound [22] was 0.0032, the solubility kinetic [23] was 38.9 µM (≈ 19.3 µg/mL) and the Papp A→B [24] was 17.5 ×10⁻⁶ cm/s. For the same molecule, the efflux ratio [25] was 1.05, the bioavailability [26] was 57.2% and the half-life [27] was 58.8 min. For the same molecule, the Cmax [28] was 3560 ng/mL, the AUC(0-t) [29] was 4470 ng·h/mL and the Cmax [30] was 9270 ng/mL. For the same molecule, the AUC(0-t) [31] was 46800 ng·h/mL, the half-life [32] was 314 min and the Kp [33] was 0.08.
